In patent publication US10023558B2, “Compounds” (CHIESI FARMACEUTICI S.P.A., priority 2016, dated 2018):
pIC50: −log10 of the molar value.

Target: T1, human neutrophil elastase (HNE) (Homo sapiens, UniProt P08246)
T1 construct: purchased Sigma E8140
T1 sequence (P08246 30-247 limits assumed): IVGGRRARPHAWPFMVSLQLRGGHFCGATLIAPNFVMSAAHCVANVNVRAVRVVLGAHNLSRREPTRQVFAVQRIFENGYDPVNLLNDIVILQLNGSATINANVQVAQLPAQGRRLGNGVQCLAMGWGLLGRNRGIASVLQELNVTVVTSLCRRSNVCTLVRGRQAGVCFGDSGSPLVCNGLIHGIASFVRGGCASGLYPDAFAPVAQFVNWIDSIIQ
Experiment: HNE Enzyme Assay (fluorogenic peptide substrate MeOSuc-Ala-Ala-Pro-Val-AMC)
Format: biochemical
Conditions: human leukocyte elastase 0.00072 U/mL, substrate 100 μM, 25° C., 30 minutes, at least two separate experiments; read-out: HNE inhibition (IC50 values)
Summary of the method: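 Human leukocyte elastase (0.00072 U/mL) with 100 μM MeOSuc-AAPV-AMC in Tris pH 7.5 buffer with NaCl, CaCl2, Brij-35, 1% DMSO, 30 min at 25° C, stopped with soybean trypsin inhibitor. AMC fluorescence (ex 380/em 460 nm); IC50 from concentration-response as % inhibition of control, at least two experiments.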

| pIC50 | SMILES |
| --- | --- |
| 8.00 to 9.00 | CC[N+](C)(C)C[C@H]1CC[C@@H](NC(=O)n2c(-c3ccnn3-c3ccc(C#N)cc3)c(C)n(-c3cccc(C(F)(F)F)c3)c2=O)CC1 [Example 55, (Cis-4-{[5-[2-(4-cyano-phenyl)-2H-pyrazol-3-yl]-4-methyl-2-oxo-3-(3-trifluoromethyl-phenyl)-2,3-dihydro-imidazole-1-carbonyl]-amino}-cyclohexylmethyl)-ethyl-dimethyl-ammonium benzene sulfonate] |
| > 9.00 | Cc1c(-c2ccnn2-c2ccc(C#N)cc2)n(C(=O)N[C@H]2C[C@@H]3C[N+](C)(C)C[C@@H]3C2)c(=O)n1-c1cccc(C(F)(F)F)c1 [Example 56, (3aR,5S,6aS)-5-{[5-[2-(4-Cyano-phenyl)-2H-pyrazol-3-yl]-4-methyl-2-oxo-3-(3-trifluoromethyl-phenyl)-2,3-dihydro-imidazole-1-carbonyl]-amino}-2,2-dimethyl-octahydro-cyclopenta[c]pyrrolium benzene sulfonate] |
| > 9.00 | Cc1c(-c2ccnn2-c2ccc(C#N)cc2)n(C(=O)N[C@@H](C)C(=O)NC2CC[N+](C)(C)CC2)c(=O)n1-c1cccc(C(F)(F)F)c1 [Example 57, 4-((S)-2-{[5-[2-(4-Cyano-phenyl)-2H-pyrazol-3-yl]-4-methyl-2-oxo-3-(3-trifluoromethyl-phenyl)-2,3-dihydro-imidazole-1-carbonyl]-amino}-propionylamino)-1,1-dimethyl-piperidinium benzene sulfonate] |
| > 9.00 | Cc1c(-c2ccnn2-c2ccc(C#N)cc2)n(C(=O)N[C@@H](C)c2ccc(C[N+](C)(C)C)cc2)c(=O)n1-c1cccc(C(F)(F)F)c1 [Example 58, [4-((S)-1-{[5-[2-(4-Cyano-phenyl)-2H-pyrazol-3-yl]-4-methyl-2-oxo-3-(3-trifluoromethyl-phenyl)-2,3-dihydro-imidazole-1-carbonyl]-amino}-ethyl)-benzyl]-trimethyl-ammonium benzene sulfonate] |
| > 9.00 | Cc1c(-c2ccnn2-c2ccc(C#N)cc2)n(C(=O)N[C@@H](C)c2nc(C[N+](C)(C)C)no2)c(=O)n1-c1cccc(C(F)(F)F)c1 [Example 60, [5-((S)-1-{[5-[2-(4-Cyano-phenyl)-2H-pyrazol-3-yl]-4-methyl-2-oxo-3-(3-trifluoromethyl-phenyl)-2,3-dihydro-imidazole-1-carbonyl]-amino}-ethyl)-[1,2,4]oxadiazol-3-ylmethyl]-trimethyl-ammonium benzene sulfonate] |
| > 9.00 | Cc1c(-c2ccnn2-c2ccc(C#N)cc2)n(C(=O)NC2CCN(C(=O)C[N+](C)(C)C)CC2)c(=O)n1-c1cccc(C(F)(F)F)c1 [Example 61, [2-(4-{[5-[2-(4-Cyano-phenyl)-2H-pyrazol-3-yl]-4-methyl-2-oxo-3-(3-trifluoromethyl-phenyl)-2,3-dihydro-imidazole-1-carbonyl]-amino}-piperidin-1-yl)-2-oxo-ethyl]-trimethyl-ammonium benzene sulfonate] |
| > 9.00 | Cc1c(-c2ccnn2-c2ccc(C#N)cc2)n(C(=O)N[C@@H](C)C(=O)N(C)CC2CC[N+](C)(C)CC2)c(=O)n1-c1cccc(C(F)(F)F)c1 [Example 62, 4-{[((S)-2-{[5-[2-(4-Cyano-phenyl)-2H-pyrazol-3-yl]-4-methyl-2-oxo-3-(3-trifluoromethyl-phenyl)-2,3-dihydro-imidazole-1-carbonyl]-amino}-propionyl)-methyl-amino]-methyl}-1,1-dimethyl-piperidinium benzene sulfonate] |
| > 9.00 | Cc1c(-c2ccnn2-c2ccc(C#N)cc2)n(C(=O)N[C@@H](C)c2nnc(C[N+](C)(C)C)o2)c(=O)n1-c1cccc(C(F)(F)F)c1 [Example 63, [5-((S)-1-{[5-[2-(4-Cyano-phenyl)-2H-pyrazol-3-yl]-4-methyl-2-oxo-3-(3-trifluoromethyl-phenyl)-2,3-dihydro-imidazole-1-carbonyl]-amino}-ethyl)-[1,3,4]oxadiazol-2-ylmethyl]-trimethyl-ammonium benzene sulfonate] |
| > 9.00 | Cc1c(-c2ccnn2-c2ccc(C#N)cc2)n(C(=O)N[C@@H](C)c2ncc(C[N+](C)(C)C)o2)c(=O)n1-c1cccc(C(F)(F)F)c1 [Example 64, [2-((S)-1-{[5-[2-(4-Cyano-phenyl)-2H-pyrazol-3-yl]-4-methyl-2-oxo-3-(3-trifluoromethyl-phenyl)-2,3-dihydro-imidazole-1-carbonyl]-amino}-ethyl)-oxazol-5-ylmethyl]-trimethyl-ammonium benzene sulfonate] |
| > 9.00 | Cc1c(-c2ccnn2-c2ccc(C#N)cc2)n(C(=O)NC2CCN(C(=O)CC[N+](C)(C)C)CC2)c(=O)n1-c1cccc(C(F)(F)F)c1 [Example 65, [3-(4-{[5-[2-(4-Cyano-phenyl)-2H-pyrazol-3-yl]-4-methyl-2-oxo-3-(3-trifluoromethyl-phenyl)-2,3-dihydro-imidazole-1-carbonyl]-amino}-piperidin-1-yl)-3-oxo-propyl]-trimethyl-ammonium benzene sulfonate] |
| > 9.00 | Cc1c(-c2ccnn2-c2ccc(C#N)cc2)n(C(=O)NC2CCC3(CC2)CC[N+](C)(C)CC3)c(=O)n1-c1cccc(C(F)(F)F)c1 [Example 66, 9-{[5-[2-(4-Cyano-phenyl)-2H-pyrazol-3-yl]-4-methyl-2-oxo-3-(3-trifluoromethyl-phenyl)-2,3-dihydro-imidazole-1-carbonyl]-amino}-3,3-dimethyl-3-azonia-spiro[5.5]undecane benzene sulfonate] |
| > 9.00 | Cc1c(-c2ccnn2-c2ccc(C#N)cc2)n(C(=O)N[C@H]2C[C@@H](C[N+](C)(C)C)C2)c(=O)n1-c1cccc(C(F)(F)F)c1 [Example 67, (Cis-3-{[5-[2-(4-cyano-phenyl)-2H-pyrazol-3-yl]-4-methyl-2-oxo-3-(3-trifluoromethyl-phenyl)-2,3-dihydro-imidazole-1-carbonyl]-amino}-cyclobutylmethyl)-trimethyl-ammonium benzene sulfonate] |
| > 9.00 | Cc1c(-c2ccnn2-c2ccc(C#N)cc2)n(C(=O)N[C@H]2C[C@H](C[N+](C)(C)C)C2)c(=O)n1-c1cccc(C(F)(F)F)c1 [Example 68, (Trans-3-{[5-[2-(4-cyano-phenyl)-2H-pyrazol-3-yl]-4-methyl-2-oxo-3-(3-trifluoromethyl-phenyl)-2,3-dihydro-imidazole-1-carbonyl]-amino}-cyclobutylmethyl)-trimethyl-ammonium benzene sulfonate] |
| > 9.00 | Cc1c(-c2ccnn2-c2ccc(C#N)cc2)n(C(=O)N[C@@H](C)C(=O)N2CCC([N+](C)(C)C)CC2)c(=O)n1-c1cccc(C(F)(F)F)c1 [Example 69, [1-((S)-2-{[5-[2-(4-Cyano-phenyl)-2H-pyrazol-3-yl]-4-methyl-2-oxo-3-(3-trifluoromethyl-phenyl)-2,3-dihydro-imidazole-1-carbonyl]-amino}-propionyl)-piperidin-4-yl]-trimethyl-ammonium benzene sulfonate] |
| > 9.00 | Cc1c(-c2ccnn2-c2ccc(C#N)cc2)n(C(=O)N[C@@H](C)C(=O)N2CCC([N+](C)(C)Cc3ccccc3)CC2)c(=O)n1-c1cccc(C(F)(F)F)c1 [Example 70, Benzyl-[1-((S)-2-{[5-[2-(4-cyano-phenyl)-2H-pyrazol-3-yl]-4-methyl-2-oxo-3-(3-trifluoromethyl-phenyl)-2,3-dihydro-imidazole-1-carbonyl]-amino}-propionyl)-piperidin-4-yl]-dimethyl-ammonium bromide] |
| > 9.00 | Cc1c(-c2ccnn2-c2ccc(C#N)cc2)n(C(=O)N[C@@H](C)C(=O)N(C)CC[N+](C)(C)C)c(=O)n1-c1cccc(C(F)(F)F)c1 [Example 71, {2-[((S)-2-{[5-[2-(4-Cyano-phenyl)-2H-pyrazol-3-yl]-4-methyl-2-oxo-3-(3-trifluoromethyl-phenyl)-2,3-dihydro-imidazole-1-carbonyl]-amino}-propionyl)-methyl-amino]-ethyl}-trimethyl-ammonium benzene sulfonate] |
| > 9.00 | Cc1c(-c2ccnn2-c2ccc(C#N)cc2)n(C(=O)N[C@H]2CC[C@H]([N+](C)(C)Cc3ncon3)CC2)c(=O)n1-c1cccc(C(F)(F)F)c1 [Example 72, (Trans-4-{[5-[2-(4-cyano-phenyl)-2H-pyrazol-3-yl]-4-methyl-2-oxo-3-(3-trifluoromethyl-phenyl)-2,3-dihydro-imidazole-1-carbonyl]-amino}-cyclohexyl)-dimethyl-[1,2,4]oxadiazol-3-ylmethyl-amnionium chloride] |
| > 9.00 | Cc1c(-c2ccnn2-c2ccc(C#N)cc2)n(C(=O)N[C@H](c2ncc(C[N+](C)(C)C)o2)C(C)C)c(=O)n1-c1cccc(C(F)(F)F)c1 [Example 73, [2-((S)-1-{[5-[2-(4-Cyano-phenyl)-2H-pyrazol-3-yl]-4-methyl-2-oxo-3-(3-trifluoromethyl-phenyl)-2,3-dihydro-imidazole-1-carbonyl]-amino}-2-methyl-propyl)-oxazol-5-ylmethyl]-trimethyl-ammonium benzene sulfonate] |
| > 9.00 | CC[C@H](NC(=O)n1c(-c2ccnn2-c2ccc(C#N)cc2)c(C)n(-c2cccc(C(F)(F)F)c2)c1=O)c1ncc(C[N+](C)(C)C)o1 [Example 74, [2-((S)-1-{[5-[2-(4-Cyano-phenyl)-2H-pyrazol-3-yl]-4-methyl-2-oxo-3-(3-trifluoromethyl-phenyl)-2,3-dihydro-imidazole-1-carbonyl]-amino}-propyl)-oxazol-5-ylmethyl]-trimethyl-ammonium benzene sulfonate] |
